Assay results taken from patent US6333338A, “Bispiperidines as antithrombotic agents” (Laboratoire L. Lafon, priority 1998, dated 2001).
Counter-ions that a name gives are not always drawn. Like-named read-outs stand apart in the source and are kept apart here.

Tests used:
[1] = tested on: guinea pig platelets; test: Ex vivo/vitro inhibition of platelet aggregation after administration via the gastric route in guinea pigs; parameters: species or system guinea pig (Dunkin-Hartley); details: Cavia porcellus, Platelet, 10 mg/kg, fasted guinea pigs
In short: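 Compounds dosed by the gastric route to Dunkin-Hartley guinea pigs, with random allocation of treatments. Blood then drawn and platelets freshly separated and tested as in the in vitro aggregation study. Inhibition measured for intensity and duration of action; IC50 derived from per-concentration inhibition.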

[2] = tested on: guinea pig platelets; test: In vitro inhibition of collagen-induced platelet aggregation, guinea pig platelets (PRP); format: cell-based, guinea pig (male Dunkin-Hartley); details: Cavia porcellus, Platelet, 0.05 h, collagen 1 μg/ml, 3 minutes of contact at 37° C.
In short: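 Citrated PRP from male Dunkin-Hartley guinea pigs, adjusted to 200,000–400,000 platelets/mm^3, with PPP as reference. Aggregation induced by collagen (1 μg/ml) and followed by optical aggregometry; inhibition measured after 3 min compound contact at 37° C with stirring.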

[3] = tested on: human platelets; test: In vitro inhibition of collagen-induced platelet aggregation, human platelets (PRP); format: cell-based; details: 0.05 h, collagen 5 μg/ml, 3 minutes of contact at 37° C., read-out: IC50 (M) in vitro, Man
Method: A study of the inhibitory activity of the compounds of formula I on platelet aggregation was carried out in vitro, i.e. by direct contact of solutions of variable concentrations of the compounds with platelets freshly separated from a sample of total blood, taken under standardized conditions, from laboratory animals (guinea pigs) and from healthy human subjects who have not received any substances or drugs that might interfere with blood clotting. The anti-platelet-aggregating activity was also studied ex vivo/vitro, i.e. after administration of the substances claimed to guinea pigs to measure the intensity and duration of the anti-aggregating action induced by the fraction of the test product absorbed and circulating in the blood.
Venous blood is taken from a group of ten healthy human subjects of the same age, by puncture into a vein of the fold of the elbow and is collected in a glass tube containing aqueous 0.129 M sodium citrate solution (1 volume of citrate solution per 9 volumes of blood). Each tube is then centrifuged a first time at 20° C. and 100 g for 15 minutes in order to obtain the platelet-rich plasma (PRP); after removing this PRP, the tube is again centrifuged at 2000 g for 15 minutes in order this time to remove the platelet-poor plasma (PPP).
For each identified sample of PRP, the platelets are counted using a Coulter ZM counter. Each sample is then used to study the variation in inhibition of the platelet aggregation triggered by the addition of a Chromo-par Reagent collagen glucose solution from Coultronics (used at a concentration of 5 μg/ml) as a function of the addition of increasing concentrations of each compound in a range covering the interval 10^-8 M→10^-5 M, (example of concentrations: 10^-8 M, […], 6×10^-6 M, 4×10^-6 M, 2×10^-6 M, 10^-6 M, […], 10^-5 M). Beforehand, for each compound, an aqueous 10^-3 M solution is prepared. A control test intended to check the possible effect of the solvents (reference value) on the platelet aggregation is introduced into each measurement series, and is measured after 3 minutes of contact at 37° C. with agitation.
From the percentages of inhibition of the platelet aggregation measured for each concentration of each compound, the 50% inhibitory concentration (IC50) is calculated.

[4] = 1 h before blood sampling, read-out: % of g.r. inhibition guinea pig ex vivo, d = 10 mg/kg, 1 h
[5] = 2 h before blood sampling, read-out: % of g.r. inhibition guinea pig ex vivo, d = 10 mg/kg, 2 h

Compound	inhibition at 10 mg/kg [1, 4] [%]	inhibition at 10 mg/kg [1, 5] [%]	IC50 [2] [nM]	IC50 [3] [M]
O=C(CNC(=O)C(CCC1CCNCC1)CCC1CCNCC1)NCC(NS(=O)(=O)c1ccc(Cl)cc1)C(=O)O (centres unmarked) [Example 34, 2-([(4-Chlorophenyl)sulphonyl]amino)-3-{[2-({4-(4-piperidyl)-2-[2-(4-piperidyl)ethyl]butanoyl}amino)acetyl]amino}propanoic Acid Dihydrochloride]	-19	-8	500	8.9e-07
O=C(CNC(=O)C(CCC1CCNCC1)CCC1CCNCC1)NCC(NS(=O)(=O)c1ccc(F)cc1)C(=O)O (centres unmarked) [Example 35, 2-{[(4-Fluorophenyl)sulphonyl]amino}-3-{[2-({4-(4-piperidyl)-2-[2-(4-piperidyl)ethyl]butanoyl}amino)acetyl]amino}propanoic Acid Dihydrochloride]	-5	0	18	1.3e-08
COc1ccc2cc(S(=O)(=O)N[C@@H](CNC(=O)CNC(=O)C(CCC3CCNCC3)CCC3CCNCC3)C(=O)O)ccc2c1 [Example 36, (2S)-2-{[(6-Methoxy-2-naphthyl)sulphonyl]amino}-3-{[2-({4-(4-piperidyl)-2-[2-(4-piperidyl)ethyl]butanoyl}amino)acetyl]amino}propanoic Acid Dihydrochloride]	-63	-69	41	7.2e-08
Cc1cc(C)c(S(=O)(=O)NC(CNC(=O)CNC(=O)C(CCC2CCNCC2)CCC2CCNCC2)C(=O)O)c(C)c1 (centres unmarked) [Example 37, 2-[(Mesitylsulphonyl)amino]-3-{[2-({4-(4-piperidyl)-2-[2-(4-piperidyl)ethyl]butanoyl}amino)acetyl]amino}propanoic Acid Dihydrochloride]	-9	-16	140	1.3e-07
CN(C)c1cccc2c(S(=O)(=O)NC(CNC(=O)CNC(=O)C(CCC3CCNCC3)CCC3CCNCC3)C(=O)O)cccc12 (centres unmarked) [Example 49, 2-({[5-(Dimethylamino)-1-naphthyl)sulphonyl}amino)-3-{[2-({4-(4-piperidyl)-2-[2-(4-piperidyl)ethyl]butanoyl}amino)acetyl]amino}propanoic Acid Trihydrochloride]	-69	-68	49	5.6e-08
COc1ccc(S(=O)(=O)N[C@@H](CNC(=O)CNC(=O)C(CCC2CCNCC2)CCC2CCNCC2)C(=O)O)c2ccccc12 [Example 52, 2-([(4-Methoxy-1-naphthyl)sulphonyl]amino)-3-{[2-({4-(4-piperidyl)-2-[2-(4-piperidyl)ethyl]butanoyl}amino)acetyl]amino}propanoic Acid Dihydrochloride]	-58	-30	35	9.3e-08
COc1cc2ccc(S(=O)(=O)N[C@@H](CNC(=O)CNC(=O)C(CCC3CCNCC3)CCC3CCNCC3)C(=O)O)cc2cc1OC [Example 53, 2-{[(6,7-Dimethoxy-2-naphthyl)sulphonyl]amino}-3-{[2-({4-(4-piperidyl)-2-[2-(4-piperidyl)ethyl]butanoyl}amino)acetyl]amino}propanoic Acid Dihydrochloride]	-73	-9	37	7.3e-08
O=C(CNC(=O)C(CCC1CCNCC1)CCC1CCNCC1)NC[C@H](NS(=O)(=O)c1cc2ccccc2s1)C(=O)O [Example 59, 2-[(1-Benzothiophen-2-ylsulphonyl)amino]-3-{[2-({4-(4-piperidyl)-2-[2-(4-piperidyl)ethyl]butanoyl}amino)acetyl]amino}propanoic Acid Dihydrochloride]	-66	-34	66	1.5e-07
O=C(CNC(=O)C(CCC1CCNCC1)CCC1CCNCC1)NCC(NS(=O)(=O)c1ccc(Cl)c2ccccc12)C(=O)O (centres unmarked) [Example 63, 2-{[(4-Chloro-1-naphthyl)sulphonyl]amino}-3-{[2-({4-(4-piperidyl)-2-[2-(4-piperidyl)ethyl]butanoyl}amino)acetyl]amino}propanoic Acid Dihydrochloride]	-69	-50	53	1e-06
O=C(CNC(=O)C(CCC1CCNCC1)CCC1CCNCC1)NCC(NS(=O)(=O)c1ccc(-c2ccccc2)s1)C(=O)O (centres unmarked) [Example 71, 2-{[(5-Phenyl-2-thienyl))sulphonyl]amino}-3-{[2-({4-(4-piperidyl)-2-[2-(4-piperidyl)ethyl]butanoyl}amino)acetyl]amino}propanoic Acid Dihydrochloride]	-72	-70	63	1.9e-07
O=C(CCNC(=O)C(CCC1CCNCC1)CCC1CCNCC1)NCC(NS(=O)(=O)c1ccc2ccccc2c1)C(=O)O (centres unmarked) [Example 78, 2-[(2-Naphthylsulphonyl)amino]-3-{[3-({4-(4-piperidyl)-2-[2-(4-piperidyl)ethyl]butanoyl}amino)propanoyl]amino}propanoic Acid Dihydrochloride]	-65	-73	46	1e-07
